Results from patent US5753709A, “N-acyl-2 aryl cyclopropylmethylamine derivatives as melatonergics” (Bristol-Myers Squibb Company, priority 1996, dated 1998).

Assays:
rats = conditions: exogenous administration; cited from earlier work
[1] = biological target: T1, human melatonin receptor (human ML1A) (Homo sapiens, UniProt P48039); experiment: Melatonergic binding: displacement of 2-[125I]-iodomelatonin at the human melatonin receptor (human ML1A in COS-1 membranes); conditions: Table 5; displacement of 2[125I]-Iodomelatonin (100 pM), 37° C., 1 hour
T1 construct: expressed in transfected cells; host or cells: COS-1 cells (transient, pcDNAI, DEAE-dextran); membrane homogenates
Description: The melatonergic binding of the compounds of Formula I was determined by a modification of the method of Reppert, S. M. et al. (Neuron, Volume 13, pages 1177-1185, 1994). […] The reagents, membranes, and other parameters used in the assay are described below:
(a) 50 mM Tris buffer containing 12.5 mM MgCl2, and 2 mM EDTA (pH 7.4 at 37° C.).
(b) Wash buffer: 20 mM Tris base containing 2 mM MgCl2 (pH 7.4 at room temperature).
(c) 6-Chloromelatonin (10^-5 M final concentration).
(d) 2-[^125 I]-Iodomelatonin (100 pM final concentration). (Source: NEN) Membrane preparation: The cDNA (human ML1A) in pcDNAI was introduced into COS-1 cells by the DEAE-dextran method. Three days later, after media removal, the plates were washed with buffered saline; the cells removed using Hank's balanced salt solution and pelleted. The supernant was discarded and the pellets frozen. For membrane homogenates, the pellets were thawed and resuspended in TME buffer, Tris base, MgCl2, EDTA (pH 7.4 at 37° C.), and supplemented with aprotinin, leupeptin, and phenylmethylsulfonyl fluoride. The cells were homogenized and centrifuged; the resulting pellet resuspended in TME and frozen. At assay, the small aliquot was thawed on ice and resuspended in TME buffer. Incubation: 37° C. for 1 hour. Reaction is terminated by filtration.

T1 sequence (P48039 whole entry): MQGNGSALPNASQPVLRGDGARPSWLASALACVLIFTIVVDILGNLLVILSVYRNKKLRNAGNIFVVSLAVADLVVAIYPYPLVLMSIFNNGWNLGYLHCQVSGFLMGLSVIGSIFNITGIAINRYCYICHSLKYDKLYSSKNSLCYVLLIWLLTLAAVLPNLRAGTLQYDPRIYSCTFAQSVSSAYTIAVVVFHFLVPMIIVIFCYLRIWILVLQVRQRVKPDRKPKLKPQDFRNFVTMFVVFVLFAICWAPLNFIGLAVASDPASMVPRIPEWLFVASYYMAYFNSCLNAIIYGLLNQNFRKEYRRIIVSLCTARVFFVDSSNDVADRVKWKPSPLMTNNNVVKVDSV

Row | SMILES | effect on circadian rhythms (rats) | IC50 [1] [nM]
1 | COc1ccc2[nH]cc(CCNC(C)=O)c2c1 [melatonin, N-acetyl-5-methoxytryptamine] | found to synchronize circadian rhythms in rats | 
2 | CCCC(=O)NC[C@@H]1C[C@H]1c1cccc(OCCCC2CCCC2)c1 (relative stereo) [Example 120, (trans)-N-[[2-[3-[(3-Cyclopentylprop-1-yl)oxy]phenyl]cycloprop-1-yl]methyl] butanamide] |  | < 5
